Results from PMC10245121, “GH20 and GH84 β-N-acetylglucosaminidases with different linkage specificities underpin mucin O-glycan breakdown capability of Bifidobacterium bifidum” (The Journal of Biological Chemistry, 2023).

How the values were obtained:
BbhV = biological target: T1, BbhV (Bifidobacterium bifidum, UniProt A0ABN5UYD8); assay: initial velocities, p-nitrophenolate release ([…] nm), Michaelis-Menten fit; assay type: biochemical; details: 0.1-5.0 mM substrate; McIlvaine buffer, pH optimum 5.5 (pH and temperature of the kinetics not stated)
T1 construct: gene BBBF_1623; residues 35-1111 of 1139 aa, signal peptide and C-terminal TM region removed, C-terminal His6 tag kept; E. coli; 171 kDa by SEC, dimer

[1] = biological target: BbhV (GH84 β-N-acetylglucosaminidase of Bifidobacterium bifidum JCM 1254), residues 35-1111, C-terminal His6 (Bifidobacterium bifidum JCM 1254); assay: SEC; Superdex 200 Increase 10/300 GL; 10 mM Tris-HCl pH 8.0, 150 mM NaCl; native mass estimated against thyroglobulin, ferritin, aldolase and conalbumin standards

T1 sequence (A0ABN5UYD8 entry or part of it): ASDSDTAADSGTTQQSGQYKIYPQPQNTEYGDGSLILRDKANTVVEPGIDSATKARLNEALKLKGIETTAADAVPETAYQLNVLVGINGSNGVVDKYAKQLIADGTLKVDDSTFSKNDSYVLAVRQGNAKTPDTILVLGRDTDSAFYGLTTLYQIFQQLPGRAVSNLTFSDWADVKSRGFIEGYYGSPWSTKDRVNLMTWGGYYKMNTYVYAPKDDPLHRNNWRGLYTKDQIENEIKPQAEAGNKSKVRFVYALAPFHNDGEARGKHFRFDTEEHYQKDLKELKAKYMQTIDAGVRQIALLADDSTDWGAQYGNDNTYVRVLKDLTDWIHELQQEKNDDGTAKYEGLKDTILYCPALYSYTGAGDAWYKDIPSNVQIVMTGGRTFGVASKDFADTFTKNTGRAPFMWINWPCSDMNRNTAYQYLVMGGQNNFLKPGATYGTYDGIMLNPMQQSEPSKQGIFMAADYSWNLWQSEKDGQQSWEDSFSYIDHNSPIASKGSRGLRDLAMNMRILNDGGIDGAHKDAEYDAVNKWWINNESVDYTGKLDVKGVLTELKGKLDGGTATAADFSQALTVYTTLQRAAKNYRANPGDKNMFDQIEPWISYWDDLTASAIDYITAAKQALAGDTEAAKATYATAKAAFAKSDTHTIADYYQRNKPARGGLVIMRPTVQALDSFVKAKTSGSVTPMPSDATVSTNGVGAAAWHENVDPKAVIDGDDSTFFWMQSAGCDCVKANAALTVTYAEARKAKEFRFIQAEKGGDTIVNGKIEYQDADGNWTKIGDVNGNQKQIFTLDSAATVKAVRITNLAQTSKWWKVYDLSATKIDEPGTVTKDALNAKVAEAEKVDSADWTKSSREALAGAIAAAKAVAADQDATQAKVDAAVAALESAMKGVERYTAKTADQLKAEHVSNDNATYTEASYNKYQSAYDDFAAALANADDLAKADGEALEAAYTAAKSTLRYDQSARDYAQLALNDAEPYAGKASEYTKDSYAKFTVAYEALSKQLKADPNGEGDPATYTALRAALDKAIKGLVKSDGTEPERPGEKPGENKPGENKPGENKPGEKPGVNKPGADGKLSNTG

Molecule | Km (BbhV) [µM] | stoichiometry N [1]
CC(=O)N[C@H]1[C@H](Oc2ccc([N+](=O)[O-])cc2)O[C@H](CO)[C@@H](O)[C@@H]1O [GlcNAcβ-pNP] | 1000 | –
BbhV (GH84 β-N-acetylglucosaminidase of Bifidobacterium bifidum JCM 1254), residues 35-1111, C-terminal His6 (enzyme) | – | 2
